According to US20140031217A1, “HERBICIDAL COMPOSITIONS COMPRISING 4-AMINO-3-CHLORO-5-FLUORO-6-(4-CHLORO-2-FLUORO-3-METHOXYPHENYL)PYRIDINE-2-CARBOXYLIC ACID OR A DERIVATIVE THEREOF AND AUXIN TRANSPORT INHIBITORS” (DOW AGROSCIENCES LLC, priority 2012, published 2014):

How the values were obtained:
[1] = tested on: LEFCH; assay: In-water applied (paddy) greenhouse weed control, LEFCH; assay type: in vivo, Leptochloa chinensis (L.) Nees; conditions: 20 DAA
Description: (§1) Weed seeds or nutlets of the desired test plant species were planted in puddled soil (mud) prepared by mixing a shredded, non-sterilized mineral soil (50.5 percent silt, 25.5 percent clay, and 24 percent sand, with a pH of about 7.6 and an organic matter content of about 2.9 percent) and water at a 1:1 volumetric ratio. The prepared mud was dispensed in 365 mL aliquots into 16-ounce (oz.) non-perforated plastic pots with a surface area of 86.59 square centimeters (cm^2) leaving a headspace of 3 centimeters (cm) in each pot. Mud was allowed to dry overnight prior to planting or transplanting. Rice seeds were planted in Sun Gro MetroMix® 306 planting mixture, which typically has a pH of 6.0 to 6.8 and an organic matter content of about 30 percent, in plastic plug trays. Seedlings at the second or third leaf stage of growth were transplanted into 840 mL of mud contained in 32-oz. non-perforated plastic pots with a surface area of 86.59 cm^2 4 days prior to herbicide application. The paddy was created by filling the headspace of the pots with 2.5 to 3 cm of water. When required to ensure good germination and healthy plants, a fungicide treatment and/or other chemical or physical treatment was applied. The plants were grown for 4-22 days in a greenhouse with an approximate 14 h photoperiod which was maintained at about 29′C during the day and 26° C. during the night. Nutrients were added as Osmocote® (19:6:12, N:P:K+minor nutrients) at 2 g per 16-oz. pot and 4 g per 960-mL 32-oz. pot. Water was added on a regular basis to maintain the paddy flood, and supplemental lighting was provided with overhead metal halide 1000-Watt lamps as necessary. The plants were employed for testing when they reached the second or third true leaf stage.
(§2) Treatments consisted of the acid or esters of 4-amino-3-chloro-5-fluoro-6-(4-chloro-2-fluoro-3-methoxy-phenyl)pyridine-2-carboxylic acid (compound A) each formulated as an SC and various herbicidal components alone and in combination. Forms of compound A were applied on an acid equivalent basis.
(§3) Other herbicidal components were applied on an active ingredient basis and included auxin transport inhibiting (ATI) herbicides chlorflurenol-methyl (technical material), chlorflurenol (technical material), diflufenzopyr (technical material), dilfufenzopyr sodium (technical material), flurenol-methyl (technical material,) and naptalam (technical material).
(§4) Treatment requirements for each compound or herbicidal component were calculated based upon the rates being tested, the concentration of active ingredient or acid equivalent in the formulation, an application volume of 2 mL per component per pot, and an application area of 86.59 cm^2 per pot.
(§5) For formulated compounds, a measured amount was placed in an individual 100 or 200 mL glass vial and was dissolved in a volume of 1.25% (v/v) Agri-Dex® crop oil concentrate to obtain application solutions.
(§6) For technical grade compounds, a weighed amount was placed in an individual 100 to 200 mL glass vial and was dissolved in a volume of acetone to obtain concentrated stock solutions. […] The concentrated stock solutions obtained were diluted with an equivalent volume of an aqueous mixture containing 2.5% (v/v) crop oil concentrate so that the final application solutions contained 1.25% (v/v) crop oil concentrate.
(§7) Applications were made by injecting with a pipetter appropriate amounts of the application solutions, individually and sequentially, into the aqueous layer of the paddy. Control plants were treated in the same manner with the solvent blank. Applications were made so that all treated plant material received the same concentrations of acetone and crop oil concentrate.
(§8) The treated plants and control plants were placed in a greenhouse as described above and water was added as needed to maintain a paddy flood. […]

[2] = tested on: SCPMA; assay: In-water applied (paddy) greenhouse weed control, SCPMA; assay type: in vivo
Description: as §1, §2, §3, §4, §5, §6, §7, §8

Compound | Visual Weed Control (%) Obs ([1]; 8.75 gae/ha) | Visual Weed Control (%) Obs ([1]; 17.5 gae/ha) | Visual Weed Control (%) Obs ([1]; 35 gae/ha) | Visual Weed Control (%) Obs ([2]; 20 DAA, 8.75 gae/ha) | Visual Weed Control (%) Obs ([2]; 20 DAA, 17.5 gae/ha) | Visual Weed Control (%) Obs ([2]; 20 DAA, 35 gae/ha) | Visual Weed Control (%) Obs ([2]; 22 DAA, 8.75 gae/ha) | Visual Weed Control (%) Obs ([2]; 22 DAA, 17.5 gae/ha) | Visual Weed Control (%) Obs ([2]; 22 DAA, 35 gae/ha) | Visual Weed Control (%) Obs ([1]; 4.38 gae/ha) | Visual Weed Control (%) Obs ([2]; 20 DAA, 4.38 gae/ha)
COc1c(Cl)ccc(-c2nc(C(=O)O)c(Cl)c(N)c2F)c1F [Compound A Acid, 4-amino-3-chloro-6-(4-chloro-2-fluoro-3-methoxyphenyl)-5-fluoropyridine-2-carboxylic acid] | 20% | 0% | 30% | 0% | 0% | 30% | 0% | 0% | 0% |  | 
COc1c(Cl)ccc(-c2nc(C(=O)OCc3ccccc3)c(Cl)c(N)c2F)c1F [Compound A Benzyl Ester] | 20% | 30% |  | 0% | 0% |  | 0% | 0% |  | 0% | 0%
